For one series, the target named is Voltage-gated inwardly rectifying potassium channel KCNH2 (Homo sapiens, UniProt Q12809). Kind of series: (§1) Inhibition of human ERG in MCF7 cells.
Voltage-gated inwardly rectifying potassium channel KCNH2, sequence (Q12809 whole entry): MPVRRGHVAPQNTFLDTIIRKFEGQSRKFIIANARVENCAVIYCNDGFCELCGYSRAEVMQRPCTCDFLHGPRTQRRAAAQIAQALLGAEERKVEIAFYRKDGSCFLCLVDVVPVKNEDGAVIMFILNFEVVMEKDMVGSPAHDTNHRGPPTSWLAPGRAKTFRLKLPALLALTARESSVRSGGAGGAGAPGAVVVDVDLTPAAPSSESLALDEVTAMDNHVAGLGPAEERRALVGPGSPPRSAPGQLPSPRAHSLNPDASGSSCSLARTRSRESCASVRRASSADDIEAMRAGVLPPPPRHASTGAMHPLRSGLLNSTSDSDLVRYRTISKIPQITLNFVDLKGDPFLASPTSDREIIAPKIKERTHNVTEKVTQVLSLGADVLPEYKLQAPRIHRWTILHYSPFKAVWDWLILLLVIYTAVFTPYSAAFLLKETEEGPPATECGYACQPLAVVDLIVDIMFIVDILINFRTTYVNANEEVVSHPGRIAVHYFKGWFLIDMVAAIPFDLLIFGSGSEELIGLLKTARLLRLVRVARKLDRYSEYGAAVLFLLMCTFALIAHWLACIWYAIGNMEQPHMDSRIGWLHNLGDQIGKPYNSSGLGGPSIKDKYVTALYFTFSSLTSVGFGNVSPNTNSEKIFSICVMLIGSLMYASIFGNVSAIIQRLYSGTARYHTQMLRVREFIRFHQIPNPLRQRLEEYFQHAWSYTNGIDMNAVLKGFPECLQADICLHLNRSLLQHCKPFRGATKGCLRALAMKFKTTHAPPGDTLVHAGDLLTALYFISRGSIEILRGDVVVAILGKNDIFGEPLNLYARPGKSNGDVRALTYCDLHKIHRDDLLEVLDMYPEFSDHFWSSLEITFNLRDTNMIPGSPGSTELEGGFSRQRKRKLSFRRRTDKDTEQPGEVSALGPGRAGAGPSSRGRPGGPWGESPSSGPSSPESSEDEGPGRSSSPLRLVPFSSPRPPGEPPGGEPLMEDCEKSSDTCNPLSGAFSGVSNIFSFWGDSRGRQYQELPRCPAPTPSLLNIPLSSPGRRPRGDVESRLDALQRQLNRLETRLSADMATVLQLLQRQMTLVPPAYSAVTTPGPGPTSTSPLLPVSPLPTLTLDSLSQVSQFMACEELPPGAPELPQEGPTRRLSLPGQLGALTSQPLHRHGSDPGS
Details: not given
hERG (KCNH2), sequence (Q12809 whole entry): as above
By IC50 is commonly meant the point on the concentration scale where inhibition reaches its midpoint. A low value points to inhibition by little substance. As to `COc1c(N2CCNC(C)C2)c(F)cc2c(=O)c(C(=O)O)cn(C3CC3)c12` (stereo not given) [GATIFLOXACIN], inhibition was half-maximal at 129 µM (IC50).

Staying with this series, now noted: human, MCF7 cells.
What is called pIC50 is the IC50 on a negative log10 scale, so that one unit is a factor of ten. Consider `C[C@@H]1CN(c2c(F)c(N)c3c(=O)c(C(=O)O)cn(C4CC4)c3c2F)C[C@H](C)N1` [SPARFLOXACIN], for which the pIC50 stood at 4.58.

Still in this series, the particulars now being: human, mcf7.
The compound `CN(c1nccc(=O)[nH]1)C1CCN(c2nc3ccccc3n2Cc2ccc(F)cc2)CC1` [MIZOLASTINE] displayed a pIC50 of 6.45.

Another series has as its target hERG (KCNH2) (Homo sapiens, UniProt Q12809). Described as §1. The settings on record: human, mcf7.
In the case of `CN1CCN(CCCCN2C(=O)CN(/N=C/c3ccc(-c4ccc(Cl)cc4)o3)C2=O)CC1` [AZIMILIDE], the IC50 is 0.562 µM.

Test system in another series: not listed separately
Kind of series: Lipophilicity, log D at pH 7.0. Conditions: buffer.
A word on the logD: it is the decadic logarithm of the distribution of all forms, ionised or not, between an organic phase and buffer at a given pH. A high value points to a more lipophilic compound. Compound `CCCc1nn(C)c2c(=O)[nH]c(-c3cc(S(=O)(=O)N4CCN(C)CC4)ccc3OCC)nc12` displayed a logD of 2.29.

In turn, `CN(C)CCC=C1c2ccccc2CCc2ccccc21` [AMITRIPTYLINE] displayed a logD of 3.33.

In turn, `COc1ccc(CCN2CCC(Nc3nc4ccccc4n3Cc3ccc(F)cc3)CC2)cc1` [ASTEMIZOLE] gave a logD of 4.14.

Turning to `CN1CCN(CCCCN2C(=O)CN(/N=C/c3ccc(-c4ccc(Cl)cc4)o3)C2=O)CC1` [AZIMILIDE], the logD was 2.05.

In turn, `CC(C)COCC(CN(Cc1ccccc1)c1ccccc1)N1CCCC1` (stereo not given) [BEPRIDIL] returned a logD of 4.49.

As to `CN(C)CCCN1c2ccccc2Sc2ccc(Cl)cc21` [CHLORPROMAZINE], the logD came to 2.99.

For `COc1cc(N)c(Cl)cc1C(=O)NC1CCN(CCCOc2ccc(F)cc2)CC1OC` (stereo not given) [CISAPRIDE], the logD was 2.05.

As to `CN1CCN(C2=Nc3cc(Cl)ccc3Nc3ccccc32)CC1` [CLOZAPINE], the logD is given as 4.41.

`COC(=O)[C@H]1[C@@H](OC(=O)c2ccccc2)C[C@@H]2CC[C@H]1N2C` [COCAINE] came in with a logD of 0.41.

`COc1ccc([C@@H]2Sc3ccccc3N(CCN(C)C)C(=O)[C@@H]2OC(C)=O)cc1` [DILTIAZEM] had a logD of 1.62.

`CN(CCOc1ccc(NS(C)(=O)=O)cc1)CCc1ccc(NS(C)(=O)=O)cc1` [DOFETILIDE] had a logD of 0.68.

With `O=C(O[C@@H]1C[C@@H]2C[C@H]3C[C@H](C1)N2CC3=O)c1c[nH]c2ccccc12` [DOLASETRON], the logD is 2.6.

With `O=c1[nH]c2ccccc2n1CCCN1CCC(n2c(=O)[nH]c3cc(Cl)ccc32)CC1` [DOMPERIDONE], the logD is 3.15.

In turn, `O=C(CCCN1CC=C(n2c(=O)[nH]c3ccccc32)CC1)c1ccc(F)cc1` [DROPERIDOL] came in with a log distribution coefficient (logD) of 2.25.

With `COc1c(N2CCNC(C)C2)c(F)cc2c(=O)c(C(=O)O)cn(C3CC3)c12` (stereo not given) [GATIFLOXACIN], the logD was -2.96.

In the case of `COc1ccc(Cl)cc1C(=O)NCCc1ccc(S(=O)(=O)NC(=O)NC2CCCCC2)cc1` [GLYBURIDE], the logD stood at 2.23.

Regarding `CN1C2CCCC1CC(NC(=O)c1nn(C)c3ccccc13)C2` (stereo not given) [GRANISETRON], the logD was -1.72.

For the compound `Cc1c(F)c(N2CCNC(C)C2)cc2c1c(=O)c(C(=O)O)cn2C1CC1` (stereo not given) [GREPAFLOXACIN], the logD is -1.47.

`CCCCN(CCCC)CCC(O)c1cc2c(Cl)cc(Cl)cc2c2cc(C(F)(F)F)ccc12` (stereo not given) [HALOFANTRINE] registered a logD of 5.68.

The compound `O=C(CCCN1CCC(O)(c2ccc(Cl)cc2)CC1)c1ccc(F)cc1` [HALOPERIDOL] gave a logD of 1.82.

`COCC(=O)O[C@]1(CCN(C)CCCc2nc3ccccc3[nH]2)CCc2cc(F)ccc2[C@@H]1C(C)C` [MIBEFRADIL] came in with a logD of 1.96.

`CN(c1nccc(=O)[nH]1)C1CCN(c2nc3ccccc3n2Cc2ccc(F)cc2)CC1` [MIZOLASTINE] showed a logD of 1.96.

Compound `C1CCC(C(CC2CCCCN2)C2CCCCC2)CC1` (stereo not given) [PERHEXILINE] had a log distribution coefficient (logD) of 2.81.

For the compound `O=c1[nH]c2ccccc2n1C1CCN(CCCC(c2ccc(F)cc2)c2ccc(F)cc2)CC1` [PIMOZIDE], the logD was 5.11.

The compound `Cc1nc2n(c(=O)c1CCN1CCC(c3noc4cc(F)ccc34)CC1)CCCC2` [RISPERIDONE] came in with a logD of 0.71.

For the compound `O=C1NCCN1CCN1CCC(c2cn(-c3ccc(F)cc3)c3ccc(Cl)cc23)CC1` [SERTINDOLE], the logD was found to be 2.65.

On to `C[C@@H]1CN(c2c(F)c(N)c3c(=O)c(C(=O)O)cn(C4CC4)c3c2F)C[C@H](C)N1` [SPARFLOXACIN], for which the logD is recorded as -3.4.

Take `Fc1ccc(Cn2c(NC3CCNCC3)nc3ccccc32)cc1` [TECASTEMIZOLE]: the logD was determined as 0.16.

As for `CC(C)(C)c1ccc(C(O)CCCN2CCC(C(O)(c3ccccc3)c3ccccc3)CC2)cc1` (stereo not given) [TERFENADINE], the log distribution coefficient (logD) came out at 4.11.

Compound `CSc1ccc2c(c1)N(CCC1CCCCN1C)c1ccccc1S2` (stereo not given) [THIORIDAZINE] gave a pH-dependent lipophilicity (logD) of 3.83.

Turning to `O=C1Cc2cc(CCN3CCN(c4nsc5ccccc45)CC3)c(Cl)cc2N1` [ZIPRASIDONE], the logD stood at 3.93.

The values are drawn from ChEMBL document CHEMBL1158373, “GRIND-based 3D-QSAR and CoMFA to investigate topics dominated by hydrophobic interactions: the case of hERG K+ channel blockers” (Eur J Med Chem, 2009).
